Test results: patent US8889708B2 (Boehringer Ingelheim International GmbH, priority 2013, dated 2014)

Columns and labels:
recombinant human DPPI = recombinant human DPPI (Homo sapiens (Human), UniProt P53634); assay: Inhibition of Human DPPI (Cathepsin C); type: biochemical; details: substrate Gly-Arg-AMC, 30 min room temperature
From the text: Inhibition of Human DPPI (Cathepsin C)
Materials: Microtiterplates (Optiplate-384 F) were purchased from PerkinElmer (Prod. No. 6007270). The substrate Gly-Arg-AMC was from Biotrend (Prod.-No. 808756 Custom peptide). Bovine serum albumin (BSA; Prod. No. A3059) and Dithiothreitol (DTT; Prod. No D0632) were from Sigma. TagZyme buffer was from Riedel-de-Haen (Prod.-No. 04269), NaCl was from Merck (Prod.-No. 1.06404.1000) and morpholinoethane sulfonic acid (MES), was from Serva (Prod.-No. 29834). The DPP1 inhibitor Gly-Phe-DMK was purchased from MP Biomedicals (Prod.-No. 03DK00625). The recombinant human DPPI was purchased from Prozymex. All other materials were of highest grade commercially available.
The following buffers were used: MES buffer: 25 mM MES, 50 mM NaCl, 5 mM DTT, adjusted to pH 6.0, containing 0.1% BSA; TAGZyme Buffer: 20 mM NaH2PO4, 150 mM NaCl adjusted to pH 6.0 with HCl
The recombinant human DPPI was diluted in TAGZyme buffer to 1 U/ml (38.1 μg/ml, respectively), and then activated by mixing in a 1:2 ratio with a Cysteamine aqueous solution (2 mM) and incubating for 5 min at room temperature.
Five uL test compound (final concentration 0.1 nM to 100 μM) in aqua bidest (containing 4% DMSO, final DMSO concentration 1%) were mixed with 10 μL of DPPI in MES buffer (final concentration 0.0125 ng/μL) and incubated for 10 min. Then, 5 μL of substrate in MES buffer (final concentration 50 μM) were added. The microtiter plates were then incubated at room temperature for 30 min. Then, the reaction was stopped by adding 10 μL of Gly-Phe-DMK in MES-buffer (final concentration 1 μM). The fluorescence in the wells was determined using a Molecular Devices SpectraMax M5 Fluorescence Reader (Ex 360 nm, Em 460 nm) or an Envision Fluorescence Reader (Ex 355 nm, Em 460 nm).
Each assay microtiter plate contained wells with vehicle controls (1% DMSO in bidest+0.075% BSA) as reference for non-inhibited enzyme activity (100% Ctl; high values) and wells with inhibitor (Gly-Phe-DMK, in bidest+1% DMSO+0.075% BSA, final concentration 1 μM) as controls for background fluorescence (0% Ctl; low values).
The analysis of the data was performed by calculating the percentage of fluorescence in the presence of test compound in comparison to the fluorescence of the vehicle control after subtracting the background fluorescence using the following formula: (RFU(sample)−RFU(background))*100/(RFU(control)−RFU(background))
Data from these calculations were used to generate IC50 values for inhibition of DPPI, respectively.

[1] = tested on: Neutrophil elastase activity in U937 cells; assay: Neutrophil elastase activity in U937 cytosolic lysate after incubation with test compound; type: cell-based; details: Homo sapiens, U-937, U937 cells incubated 48 hours with compound, read-out: Reduction of NE-activity in U937 cells IC50
Experimental: Determination of Neutrophil Elastase Activity in U937 Cytosolic Lysate Preparation after Incubation with Test Compound
Optiplate 384F were purchased from PerkinElmer (Prod. No. #6007270). 24well Nunclon cell culture plates (No. 142475) and 96well plates (No. 267245) were from Nunc. Dimethylsulfoxid (DMSO) was from Sigma (Prod. No. D8418). Nonidet-P40 (NP40) was from USBiological (Prod. No. N3500)
Substrate, specific for Neutrophil elastase, was from Bachem (MeOSuc-Ala-Ala-Pro-Val-AMC; Prod. No. I-1270).
Human neutrophil elastase was from Calbiochem (Prod. No. 324681)
Tris-buffer (100 mM Tris; 1M NaCL; pH 7.5)
Tris-buffer+HSA 0.1%; Human Serum Albumin from Calbiochem (Cat#. 126658)
Serine-protease buffer (20 mM Tris; 100 mM NaCL; pH 7.5)+0.1% HSA
Serine protease lysis buffer: 20 mM Tris-HCL; 100 mM NaCl pH 7.5; +0.2% Nonidet-P40;
PBS: phosphate buffered saline, without Ca and Mg, from Gibco
U937 from ECACC (Cat. No. 85011440) cultured in suspension at 37° C. and 5% CO2.
Cell density: 0.2-1 Mio. Cells/ml.
Medium: RPMI1640 GlutaMAX (No. 61870) with 10% FCS from Gibco
Cell Seeding and Treatment:
Compounds in 100% DMSO were diluted in Medium (—FCS) with 10% DMSO and further diluted according to the experiment planned.
20 μl of the compound solution was transferred in the respective wells of the 24 well plate and diluted with 2 ml cell suspension/well containing […] (final concentration of DMSO=0.1%). Compound dilution factor=100
Compounds (up to 7 concentrations) were tested in triplicates with 3 wells for the DMSO 0.1% control, incubatet for 48 hours without medium change at 37° C., 5% CO2 and 95% relative humidity.
Cell Harvesting and Cell Lysate:
Transfer the cell suspension in 2.2 ml Eppendorf cups. Separate cells from medium by centrifugation (400×g; 5 min; RT); discard the supernatant. Resuspend in 1 ml PBS; centrifugation (400×g; 5 min; RT); wash cells twice with PBS. Add 100 μl Serin lysis buffer (ice cold) to the cell pellet; resuspend the pellet and store on ice for 15 minutes. Remove debris by centrifugation at 15000×g for 10 min at 4° C. Transfer 80-100 μl lysate supernatant in 96well plate and store immediately at −80° C.
Neutrophil Elastase Activity Assay:
Frozen lysates were thawn at 37° C. for 10 minutes and stored on ice. Protein content was determined with Bradford protein assay. Lysates were diluted to 0.2-0.5 mg/ml protein in serine protease buffer+HSA.
Standard: NE ([…] stocksolution in Tris-buffer; stored at −80° C.) was diluted in Tris-buffer+HSA to 750 ng/ml, and further serially diluted 1:2 for the standard curve.
Buffer, blank, standard and lysate samples were transferred into 384 well plate
Blank: 5 μl Tris-buffer+10 μl Tris-buffer+HSA+5 μl Substrate
Standard: 5 μl Tris-buffer+10 μl NE (diff.conc.)+5 μl Substrate
Lysate: 5 μl Tris-buffer+10 μl Lysat+5 μl Substrate
The increase in fluorescence (Ex360 nm/Em 460 nm) is determined over 30 minutes with a Molecular Device Spectramax M5 Fluorescence Reader. Kinetic Reduction (Vmax units/sec); 4 vmax points. The amount of neutrophil elastase (ng/ml) is calculated using the standard curve and the Spectramax software. The result is interpolated to ng/mg lysate protein using excel formula functions. Percent inhibition in the compound-treated lysate samples is calculated relative to the DMSO-treated control-sample (100−(compound-sample*100)/control-sample)
IC50 is calculated using Graphpad Prism; nonlinear fitting (log(inhibitor) vs. response—Variable slope).

recombinant human DPPI, sequence (P53634 231-394): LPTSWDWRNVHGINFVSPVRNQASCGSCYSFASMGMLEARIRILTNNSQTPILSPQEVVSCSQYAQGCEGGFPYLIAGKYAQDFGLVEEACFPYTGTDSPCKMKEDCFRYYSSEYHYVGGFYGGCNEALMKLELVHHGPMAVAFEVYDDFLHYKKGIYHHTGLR
recombinant human DPPI, sequence (P53634 395-463): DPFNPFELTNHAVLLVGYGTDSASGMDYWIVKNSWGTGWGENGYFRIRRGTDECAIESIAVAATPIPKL
recombinant human DPPI, sequence (P53634 25-134): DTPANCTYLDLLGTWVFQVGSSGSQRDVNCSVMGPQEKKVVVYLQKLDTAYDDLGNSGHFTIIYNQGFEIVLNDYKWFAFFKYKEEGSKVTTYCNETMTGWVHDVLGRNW

IC50 (recombinant human DPPI) [nM]	IC50 [1] [nM]	Compound
17.1	27	CN1C(=O)Cc2ccc(-c3ccc(C[C@@H](C#N)NC(=O)C45CCC(CC4)CN5)cc3)cc21 [Example 2]
4.3	13	COCCN1C(=O)Cc2ccc(-c3ccc(C[C@@H](C#N)NC(=O)C45CCC(CC4)CN5)c(F)c3)cc21 [Example 26]
6.8	7	N#C[C@H](Cc1ccc(-c2ccc3c(c2)CCNC3=O)cc1F)NC(=O)C12CCC(CC1)CN2 [Example 22]
6.6	33	N#C[C@H](Cc1ccc(-c2ccc3c(c2)NC(=O)C3)cc1F)NC(=O)C12CCC(CC1)CN2 [Example 23]
50.1	86	CN1Cc2cc(-c3ccc(C[C@@H](C#N)NC(=O)C45CCC(CC4)CN5)cc3)ccc2C1=O [Example 4]
17	48	CS(=O)(=O)c1ccc(-c2ccc(C[C@@H](C#N)NC(=O)C34CCC(CC3)CN4)c(F)c2)cc1 [Example 21, N-[(1S)-1-cyano-2-[2-fluoro-4-(4-methanesulfonylphenyl)phenyl]ethyl]-2-azabicyclo[2.2.2]octane-1-carboxamide]
2.2	7	CC1(C)OC(=O)c2ccc(-c3ccc(C[C@@H](C#N)NC(=O)C45CCC(CC4)CN5)c(F)c3)cc21 [Example 27]
4.3	73	N#C[C@H](Cc1ccc(-c2csc(C(N)=O)c2)cc1F)NC(=O)C12CCC(CC1)CN2 [Example 31]
4.9	13	CN1C(=O)Cc2ccc(-c3ccc(C[C@@H](C#N)NC(=O)C45CCC(CC4)CN5)c(F)c3)cc21 [Example 28]
